With `CS(=O)(=O)c1ccc(Cl)c(C(=O)Nc2ccc(-n3nc(C(F)(F)F)cc3C3CC3)cc2)c1`, the melting point was in the range of 132 to 135 °C.
The molecule `FC(F)(F)c1ccc(-c2cc(Nc3ccc4ccc(Cl)nc4c3)ncn2)cc1` yielded a melting point of 233 °C.
`CC(=O)SCC(C(=O)N1CC2(C[C@H]1C(=O)O)C(=O)CCC2=O)C(F)(F)F` (stereo not given in full): the melting point was 153 to 155 °C.
With `CCOC(=O)C1CCN(c2ccc([N+](=O)[O-])c(C=C3NC(=O)NC3=O)c2)CC1`, the melting point lay within 221 to 223 °C.
`Cc1cccc(C)c1N1C(=O)CN(C(C)C)C1=S` yielded a melting point of 135 to 137 °C.
As for `CCCNC(=S)NS(=O)(=O)c1c(NC(=O)OCC)sc(C)c1C#N`, the figure is 167 to 168 °C.
As for `COc1cc(N)nc(Cl)n1`, the figure is 186 °C; as for `CCNC(=O)Oc1cccc(NC(=O)CC(C)=O)c1`, 138 °C; as for `Cc1nc2cc(Cl)ccc2c(=O)n1C`, 162 to 165 °C.
Molecule `Nc1cc(N2CCN(C(c3ccccc3)(c3ccccc3)c3ccccc3)CC2)nc(N)n1` yielded a melting point of 152 to 160 °C.
The molecule `CCC1(c2cccs2)OCC(=O)Nc2ccc(-c3ccc(F)c(C#N)c3)cc21` (stereo not given) showed a melting point of 197 to 199 °C.
Turning to `COC(=O)COc1cccc(-c2nc(COc3ccc(COc4nn(-c5ccccc5)cc4C=O)cc3OC)c(C)o2)c1`, the melting point is 107 to 109 °C.
The molecule `O=C(O)Cc1nn(-c2nc3c(Cc4ccc5scnc5c4)cccc3s2)c(=O)c2ccccc12` showed a melting point of 203 to 204 °C.
On to `S=C1CCNc2ccccc2N1`, for which the melting point is 154 to 157 °C.
`COc1cc(C(=O)O)ccc1Cc1nn(C)c2ccc(NC(=O)OC3CCCC3)cc12` registered a melting point of 216 to 217 °C.
Molecule `CC12C=CC(=O)CC1CCC1C2CCC2(C)C(C(=O)NC3(C#N)CCCCC3)CCC12` (stereo not given) came in with a melting point of 292 to 300 °C.
As to `C[C@@H](O)c1nccc(N2CCC(=Cc3cccc(Cl)c3)CC2)n1`, the melting point was in the range of 45 to 55 °C.
`CN1CCN(c2cccc3ccc(OCc4cccc(Cl)c4)cc23)CC1` registered a melting point of 67.5 to 68 °C.
With `CNC(=S)NCCCCCC1CCSS1` (stereo not given), the melting point was 64 to 65 °C.
Molecule `COc1cc(C)c(S(=O)(=O)N(C)C)cc1[N+](=O)[O-]` came in with a melting point of 130 to 132 °C.
With `Brc1ccc2c(Sc3ccccc3)c[nH]c2c1`, the melting point fell in the range of 145 to 148 °C.
Molecule `CCCCCCCC(N)=NO` had a melting point of 73 to 75 °C.
Consider `COc1cc2ncc(C#N)c(Sc3cccc(Br)c3)c2cc1OC`, for which the melting point fell in the range of 173 to 175 °C.
In the case of `COC(=O)c1ccc(OC(C)c2ccccc2OCc2ccccc2)cc1` (stereo not given), the melting point lay in the range of 90.8 to 91.5 °C.
In turn, `Oc1nc2ccc3c(c2nc1O)CCCC3` gave a melting point of over 300 °C.
In the case of `COc1ccc(CNc2nc(N(C)CCO)ncc2C(=O)c2cc(OC)c(OC)c(OC)c2)cc1Cl`, the melting point was 166 to 168 °C.
Take `Cc1nc(N(C)c2ccccc2)n2ncc(C(=O)c3ccccc3)c2n1`: the melting point worked out at 121 °C.
In turn, `CCCCCCCc1ccc(C=CC(=O)c2ccc(OCC=C(C)C)cc2OCC(=O)O)cc1` had a melting point of 106 to 107 °C.
Consider `CCOc1cc(C(C)(C)C)ccc1-c1nc(-c2c(F)cccc2Cl)nn1C`, for which the melting point fell in the range of 108 to 111 °C.
As for `CCOC(=O)C(=O)Nc1ccc(Cc2ccc(NC(=O)C(=O)OCC)cc2)cc1`, the figure is 146 to 147 °C; as for `N#Cc1cc(NC(=O)c2cc3ccccc3s2)ccc1N1CCC(CCO)CC1`, 218 °C.
As for `C/C(=C\c1ccc(OC(C)C)cc1Oc1ncc(C(F)(F)F)cc1Cl)C(=O)NS(=O)(=O)NCc1cnc(C)cn1`, the figure is 126 to 128 °C; as for `CC(C(=O)NCCN(C)C)c1cccc(C(=O)c2cc3ccsc3s2)c1` (stereo not given), 160 °C.
As for `CC(C)(C)c1ccc(C(=O)Nc2cn3cc(-c4ccncc4)ccc3n2)cc1`, the melting point lay in the range of 293 to 294 °C.
Turning to `COC(=O)C[C@@H]1C[C@@H](COc2ccc(-c3ccc(C#N)cc3)cc2)NC1=O`, the melting point was in the range of 138 to 140 °C.
